Source: article PMC13619113 (Journal of controlled release : official journal of the …, 2023)

Legend:
Sprague-Dawley rats [1] = test: Blood glucose response after subcutaneous administration; assay type: in vivo, rat; settings: subcutaneous 1 IU/kg, fasted Sprague-Dawley rats, Fig. 7
[2] = tested on: 50:50 coculture of Caco-2:HT29-MTX cells
Sprague-Dawley rats [3] = test: Blood glucose response after intestinal closed-loop; assay type: in vivo, rat
[4] = rat, in vivo

Substance	effect on blood glucose level (Sprague-Dawley rats [1])	Papp × 10^−9 (cm/s) [2]	increase of the pharmacological availability over insulin (Sprague-Dawley rats [3]; 50 IU/kg to the small intestine, rat)	effect on blood glucose level (Sprague-Dawley rats [3]; 50 IU/kg delivered directly to the ileum, Fig. 8)	AUC [4]	BA (%) [4]
1KPI: bovine insulin conjugated with 1000 da PEG via PEG nitrophenyl carbonate	effective at reducing the glucose levels below baseline throughout the testing period	3.28 ± 0.88 × 10^−9 cm/s	–	–	–	–
2KPI: bovine insulin conjugated with 2000 da PEG via PEG nitrophenyl carbonate, 1:1, at LysB29	–	2.90 ± 0.86 × 10^−9 cm/s	2.8 times	–	–	–
5KPI: bovine insulin conjugated with 5000 da PEG via PEG nitrophenyl carbonate	least effect of the PEGylated insulin samples on blood glucose levels	2.44 ± 0.06 × 10^−9 cm/s	–	–	–	–
Bovine insulin	effective at reducing the glucose levels below baseline throughout the testing period	–	–	limited hypoglycemic response	12610 ± 9850 ng·h/mL	1.064 ± 0.83%
